“Also recorded” adds a separate entry of the source. Read-outs that look alike come from different tables or passages of the source.

For data set [1] the following is noted: up to the maximum bolus tested, 200 microliters every 6 hours (8 mL/kg per bolus; 32 mL/kg/day). The protocol: In a separate experiment using the above conditions the tolerance of bolus injection of 100% oxygen gas was tested.
Data set [2] concerns Clostridioides difficile ATCC 43255. The following applies: for clinical severity / clinical observations versus infection control group: FIGS. 7-10; for animals showing clinical signs of infection (recurrence) in the 2nd week after inoculation and treatment: days 8-14; for survival: mice followed 14 days after inoculation, treatment day 0 to day 4; for onset of action / cure rate: mouse CDI model; for cure rate: 14 days after inoculation.
Description: Thirty C57BL/6 female mice (18-22 g) fitted with duodenal catheters externalized and fitted with access button ports were purchased from Charles River Laboratories and singly housed in a temperature and humidity-controlled room with a 12-hour light cycle. The mice were divided into 3 groups of 10. All procedures used in these experimental protocols were in compliance with the Animal Welfare Act, the Guide for the Care and Use of Laboratory Animals, and the Office of Laboratory Animal Welfare.
The mice were pretreated with an antibiotic cocktail in their drinking water for 8 consecutive days. This antibiotic cocktail was composed of 1% glucose, 500 mcg/mL kanamycin, 44 mcg/mL gentamicin, 1062.5 units per milliliter colistin, 269 mcg/mL metronidazole, 156 mcg/mL ciprofloxacin, 100 mcg/mL ampicillin, and 56 mcg/mL vancomycin. The antibiotic cocktail and drinking water were replaced every 2 to 3 days. Five days prior to infection the antibiotic water was removed and normal drinking water was provided to the animals. Three days prior to infection the animals received a single dose of clindamycin 10 mg per kilogram via oral administration in a volume of 10 mL per kilogram.
On study Day 0 mice were inoculated with the bacterial suspension of 5×10^5 CFU Clostridioides difficile ATCC 43255 via oral gavage. Eight hours after inoculation administration of vehicle, antibiotic control, and test article was initiated according to the following. The vehicle a.k.a. infection control group of 10 mice received 80 μL per hour 100% pure nitrogen gas via duodenal catheter. The infection control group of 10 mice received 50 mg/kg vancomycin via oral gavage once daily. […] Administration was continued from study day 0 to study day 4, a total of 5 days. The mice were followed for 14 days after inoculum recording daily weights and clinical observations. Animals that appeared severely moribund were euthanized. At the end of the study all animals were humanely euthanized.

Turning to `O=O` [EAT, oxygen], the “adverse effects of bolus injection” value in data set [1] was “No adverse effects were observed”. In addition, in data set [2], the “clinical severity / clinical observations versus infection control group” value is listed as “fewer sick animals compared to the infection control group; also recorded: mildly ill compared to the infection control group”; the “animals showing clinical signs of infection (recurrence) in the 2nd week after inoculation and treatment” value (“animals showing clinical signs” below) is given as “no recurrent infections”; the survival turned out to be 100%; the onset of action entry is “slower onset of action”. The cure rate in data set [2] was found to be 100%. For the same compound, in data set [2] (listed as Enteric aerobization therapy), the “clinical severity / clinical observations versus infection control group” value is recorded as “reduces the severity of disease, accelerates recovery”. Also, the “adverse effects due to gas infusion” value in data set [2] (infusion via duodenal catheter 3.2 mL/kg/hr, 76.8 mL/kg/day) is “no adverse effects”.

For `CN[C@H](CC(C)C)C(=O)N[C@H]1C(=O)N[C@@H](CC(N)=O)C(=O)N[C@H]2C(=O)N[C@H]3C(=O)N[C@H](C(=O)N[C@H](C(=O)O)c4cc(O)cc(O)c4-c4cc3ccc4O)[C@H](O)c3ccc(c(Cl)c3)Oc3cc2cc(c3O[C@@H]2O[C@H](CO)[C@@H](O)[C@H](O)[C@H]2O[C@H]2C[C@](C)(N)[C@H](O)[C@H](C)O2)Oc2ccc(cc2Cl)[C@H]1O` [vancomycin, reference compound], in data set [2], the “animals showing clinical signs” value is 70%; the survival was found to be 100%; the onset of action entry is recorded as “more rapid onset of action”; the cure rate turned out to be 30%. Also, the “animals showing clinical signs” value in data set [2] (listed as antibiotic control group) is given as “Seventy”.

(Values after US12128079B2, “Enteric aerobization therapy” (LPOXY THERAPEUTICS, INC., priority 2021, dated 2024).)
